Experimental findings from US8399465B2, “Compounds with two fused bicyclic heteroaryl moieties as modulators of leukotriene A4 hydrolase” (Janssen Pharmaceutica NV, priority 2009, dated 2013) are described below.

In experiment [1] the test system is ex vivo calcium ionophore-stimulated LTB4 production in whole blood. The experiment in a line: Murine arachidonic acid-induced inflammation model: ex vivo stimulated LTB4 production in blood. Set-up: species or system Balb/c mice. The conditions noted are these: Mus musculus; 30 mg/kg oral gavage; blood diluted 1:1, A23187 stimulated ex vivo; percent inhibition of LTB4 production; read-out: % Inh. LTB4. The procedure: (§1) Assay 3: Murine Arachidonic Acid-Induced Inflammation Model
(§2) LTA4H inhibitor compounds of the present invention were dissolved in 20% cyclodextran/H2O at a concentration of 3 mg/mL. The solutions were administered by oral gavage to female Balb/c mice weighing approximately 20 grams each (0.2 mL per mouse, 30 mg of LTA4H inhibitor compound per kg). Sixty minutes after being administered an LTA4 inhibitor, each mouse received topical application of 20 μL of arachidonic acid (100 mg/mL in acetone) to the left ear and 20 μL of acetone only to the right ear. After 3 h, the mice were sacrificed, blood was withdrawn in heparinized syringes, and 8 mm ear biopsies were taken. Ear biopsies were weighed to determine edema and then frozen at −80° C. until needed for determination of neutrophil influx.
The microtiter plate contents were incubated for 30 min at 37° C. in a humidified incubator. The reaction was terminated by centrifugation (833×g, 10 min at 4° C.). Supernatants were analyzed for LTB4 by a commercially available enzyme-linked immunoassay (Cayman Chemical Co.) in accordance with the manufacturer's instructions. The percent inhibition of ex vivo stimulated LTB4 production (% Inh. LTB4) was determined by comparison to animals treated identically except that the solution administered by oral gavage was devoid of inhibitor compound.

For experiment [2], the target named is T1, recombinant human LTA4 hydrolase (rhLTA4H) (Homo sapiens, UniProt P09960).
T1 construct: made in house; host or cells: Spodoptera frugiperda (Sf-9) cells, baculovirus (pFastBac1)
T1 sequence (P09960 1-611): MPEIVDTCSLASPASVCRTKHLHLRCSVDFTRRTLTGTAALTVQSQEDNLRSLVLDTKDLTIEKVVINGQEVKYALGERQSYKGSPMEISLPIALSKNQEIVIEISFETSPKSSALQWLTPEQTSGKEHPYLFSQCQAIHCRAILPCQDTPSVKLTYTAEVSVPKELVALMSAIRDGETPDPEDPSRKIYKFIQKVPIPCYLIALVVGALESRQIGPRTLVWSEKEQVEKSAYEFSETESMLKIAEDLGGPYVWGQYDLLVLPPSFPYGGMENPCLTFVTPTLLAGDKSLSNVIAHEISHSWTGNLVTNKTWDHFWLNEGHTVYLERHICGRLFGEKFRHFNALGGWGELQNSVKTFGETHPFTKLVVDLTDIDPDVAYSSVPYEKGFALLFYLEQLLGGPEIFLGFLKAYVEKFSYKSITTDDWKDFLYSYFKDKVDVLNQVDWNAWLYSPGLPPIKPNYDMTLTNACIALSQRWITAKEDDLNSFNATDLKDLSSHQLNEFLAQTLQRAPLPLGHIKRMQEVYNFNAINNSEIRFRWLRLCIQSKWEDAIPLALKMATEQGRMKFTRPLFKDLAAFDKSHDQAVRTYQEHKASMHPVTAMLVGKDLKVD
The experiment in a line: Recombinant human LTA4 hydrolase assay for LTA4 hydrolase inhibitor activity. Format: biochemical. The conditions noted are these: rhLTA4H, LTB4 by immunoassay; single determination or average of two or more; mark after value = form tested: ′ free base, ″ hydrochloride, ^ formate; read-out: IC50. In short, it runs like this: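 LTB4 formation, measured by enzyme immunoassay, was the read-out. The enzyme, recombinant human LTA4H expressed in Sf-9 insect cells (10 ng per reaction), was exposed to compound for 10 min at room temperature before hydrolysed-ester LTA4 substrate was added for 30 min. Enzyme-free negatives were included.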

The test system of experiment [3] is arachidonic acid-induced neutrophil influx in murine ear tissue. The experiment in a line: Murine arachidonic acid-induced inflammation model: neutrophil influx (myeloperoxidase) in ear. Format: in vivo, Balb/c mice. As to conditions: Mus musculus; 30 mg/kg oral gavage, 60 min before topical arachidonic acid, ear biopsy after 3 h; percent inhibition of neutrophil influx; read-out: % Inh. MPO. The method, then: as §1, §2
Neutrophil influx was quantified by measuring the activity of myeloperoxidase (MPO), a neutrophil-specific enzyme. […] Debris was removed by centrifugation at 14000×g for 10 min. […] The microtiter plate contents were held at room temperature until the sample with the highest concentration of MPO reached an absorbance value of 0.4 at 650 nm. The reaction was stopped by addition of 50 μL 1 M H2SO4 to each sample well, and the myeloperoxidase activity in each sample was determined from the absorbance at […]. The background value from the right ear, treated only with acetone, was subtracted from that for the left ear, treated with arachidonic acid in acetone, for each animal. The percent inhibition of neutrophil influx (% Inh. MPO) by compounds of the invention was determined by comparison to animals treated identically, except that the solution administered by oral gavage was devoid of inhibitor compound. All compounds were assayed in their free base form.

Experiment [4] has as its system LTB4 production in murine blood (LTA4H). The experiment in a line: LTB4 production by calcium ionophore-stimulated murine blood for LTA4H inhibitor activity. It is filed as cell-based, CD-1 mice. As to conditions: Mus musculus; murine blood diluted 1 in 15, A23187 stimulated; single determination or average; mark after value = form tested: ′ free base, ″ hydrochloride, ^ formate; read-out: IC50. An outline of the steps: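 LTB4 was measured by ELISA in supernatants after calcium ionophore A23187 stimulation (final 7 μg/mL, 30 min, 37° C) of CD-1 mouse blood collected on heparin. Compound was preincubated with the blood for 15 min beforehand. Values come from one determination or average several.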

Structures can show the parent of a compound that is named as a salt.

In the case of `c1cnc2nc(Oc3ccc4c(CN5C[C@@H]6C[C@H]5CO6)coc4c3)sc2c1` [Example 158, (1S,4S)-2-[3-(2-Oxa-5-aza-bicyclo[2.2.1]hept-5-ylmethyl)-benzofuran-6-yloxy]-thiazolo[4,5-b]pyridine], the values for the inhibition at 30 mg/kg in experiment [1] and in experiment [3] were 95% and 87%, respectively. For the same molecule, the IC50 (in general, the concentration that gives 50% inhibition) in experiment [2] came out at 0.006 µM; in experiment [4] it was 0.032 µM.
The matching figures for `CC(=O)N1C[C@@H]2C[C@H]1CN2Cc1cc2ccc(Oc3nc4ncccc4s3)cc2o1` [Example 168, (1S,4S)-1-{5-[6-(Thiazolo[4,5-b]pyridin-2-yloxy)-benzofuran-2-ylmethyl]-2,5-diaza-bicyclo[2.2.1]hept-2-yl}-ethanone]: 70%, 74%, 0.036 µM and 0.21 µM.
Turning to `NC(=O)N1C[C@H]2CC[C@@H](C1)N2Cc1cc2cc(Oc3nc4ncccc4s3)ccc2o1` [Example 94, meso-8-[5-(Thiazolo[4,5-b]pyridin-2-yloxy)-benzofuran-2-ylmethyl]-3,8-diaza-bicyclo[3.2.1]octane-3-carboxylic acid amide], the concentration for half-maximal inhibition (IC50) in experiment [2] was 0.102 µM; in experiment [4] it was 0.202 µM.
In the case of `CC(=O)N[C@H]1C[C@H]2CC[C@@H](C1)N2Cc1cc2ccc(Oc3nc4ccccc4s3)cc2s1` [Example 134, meso-endo-N-{8-[6-(Benzothiazol-2-yloxy)-benzo[b]thiophen-2-ylmethyl]-8-aza-bicyclo[3.2.1]oct-3-yl}-acetamide], the figures for the concentration for half-maximal inhibition (IC50) in experiment [2] and in experiment [4] were 0.043 µM and 0.74 µM, respectively.
For `OC1(c2ccc(Cl)cc2)CCN(Cc2coc3cc(Oc4nc5ncccc5s4)ccc23)CC1` [Example 347, 4-(4-Chloro-phenyl)-1-[6-(thiazolo[4,5-b]pyridin-2-yloxy)-benzofuran-3-ylmethyl]-piperidin-4-ol], in that order: 0.024 µM and 0.13 µM.
For `CS(=O)(=O)N1CCCN(Cc2coc3cc(Oc4nc5ncccc5s4)ccc23)CC1` [Example 247, 2-[3-(4-Methanesulfonyl-[1,4]diazepan-1-ylmethyl)-benzofuran-6-yloxy]-thiazolo[4,5-b]pyridine], in that order: 0.009 µM and 0.024 µM.
Consider `O=C(O)C1CCN(Cc2c[nH]c3cc(Oc4nc5ccccc5s4)ccc23)CC1` [Example 45, 1-[6-(Benzothiazol-2-yloxy)-1H-indol-3-ylmethyl]-piperidine-4-carboxylic acid], for which the half-maximal inhibitory concentration (IC50) in experiment [2] turned out to be 0.006 µM; in experiment [4], 1.34 µM.
The matching figures for `O=C(c1coc2cc(Oc3nc4ncccc4s3)ccc12)N1CCCCC1` [Example 383, Piperidin-1-yl-[6-(thiazolo[4,5-b]pyridin-2-yloxy)-benzofuran-3-yl]-methanone]: 0.05 µM and 0.2 µM.
Consider `CC(=O)N1C[C@@H]2C[C@H]1CN2Cc1coc2cc(Oc3nc4ccccc4s3)ccc12` [Example 164, (1S,4S)-1-{5-[6-(Benzothiazol-2-yloxy)-benzofuran-3-ylmethyl]-2,5-diaza-bicyclo[2.2.1]hept-2-yl}-ethanone], for which the IC50 was 0.026 µM in experiment [2] and 0.23 µM in experiment [4].
As for `O=C(C1CCOC1)N1CC2CN(Cc3coc4cc(Oc5nc6ncccc6s5)ccc34)CC2C1` (centres unmarked) [Example 354, (Tetrahydro-furan-3-yl)-{5-[6-(thiazolo[4,5-b]pyridin-2-yloxy)-benzofuran-3-ylmethyl]-hexahydro-pyrrolo[3,4-c]pyrrol-2-yl}-methanone], the values for the half-maximal inhibitory concentration (IC50) in experiment [2] and in experiment [4] were 0.007 µM and 0.2 µM, respectively.
In the case of `CCN(C(C)=O)C1CCN(Cc2coc3cc(Oc4nc5ncccc5s4)ccc23)CC1` [Example 353, N-Ethyl-N-{1-[6-(thiazolo[4,5-b]pyridin-2-yloxy)-benzofuran-3-ylmethyl]-piperidin-4-yl}-acetamide], the values for the IC50 in experiment [2] and in experiment [4] were 0.006 µM and 0.022 µM, respectively.
For `CC(C)(C)NCc1coc2cc(Oc3nc4ncccc4s3)ccc12` [Example 301, tert-Butyl-[6-(thiazolo[4,5-b]pyridin-2-yloxy)-benzofuran-3-ylmethyl]-amine formate], the IC50 in experiment [2] was 0.015 µM; in experiment [4], 0.004 µM.
The matching figures for `CCN(CC)C1CCN(Cc2coc3cc(Oc4nc5ncccc5s4)ccc23)C1` (centres unmarked) [Example 327, Diethyl-{1-[6-(thiazolo[4,5-b]pyridin-2-yloxy)-benzofuran-3-ylmethyl]-pyrrolidin-3-yl}-amine]: 0.029 µM and 0.13 µM.
As to `CC(=O)NC1CCN(Cc2coc3cc(Oc4nc5nccnc5s4)ccc23)CC1` [Example 253, N-{1-[6-(Thiazolo[4,5-b]pyrazin-2-yloxy)-benzofuran-3-ylmethyl]-piperidin-4-yl}-acetamide formate], the concentration for half-maximal inhibition (IC50) was 0.039 µM in experiment [2] and 0.091 µM in experiment [4].
The matching figures for `CC(=O)N[C@H]1C[C@H]2CC[C@@H](C1)N2Cc1cc2cc(Oc3nc4c(F)cccc4s3)ccc2o1` [Example 85, meso-endo-N-{8-[5-(4-Fluoro-benzothiazol-2-yloxy)-benzofuran-2-ylmethyl]-8-aza-bicyclo[3.2.1]oct-3-yl}-acetamide]: 0.017 µM and 0.21 µM.
Consider `O=C(c1coc2cc(Oc3nc4ncccc4s3)ccc12)N1CCN(C2CCCCC2)CC1` [Example 379, (4-Cyclohexyl-piperazin-1-yl)-[6-(thiazolo[4,5-b]pyridin-2-yloxy)-benzofuran-3-yl]-methanone], for which the figures for the IC50 in experiment [2] and in experiment [4] were 0.01 µM and 0.15 µM, respectively.
For the molecule `c1cnc2nc(Oc3ccc4c(CN5CCOCC5)c[nH]c4c3)sc2c1` [Example 40, 2-(3-Morpholin-4-ylmethyl-1H-indol-6-yloxy)-thiazolo[4,5-b]pyridine], the half-inhibitory concentration (IC50) in experiment [2] stood at 0.002 µM; in experiment [4], 0.023 µM.
The matching figures for `CC(=O)N[C@H]1C[C@H]2CC[C@@H](C1)N2Cc1c[nH]c2cc(Oc3nc4ccccc4s3)ccc12` [Example 13, meso-endo-N-{8-[6-(Benzothiazol-2-yloxy)-1H-indol-3-ylmethyl]-8-aza-bicyclo[3.2.1]oct-3-yl}-acetamide]: 0.002 µM and 0.1 µM.
The matching figures for `c1ccc2sc(Oc3ccc4c(CN5C[C@@H]6C[C@H]5CN6)c[nH]c4c3)nc2c1` [Example 52, (1S,4S)-2-[3-(2,5-Diaza-bicyclo[2.2.1]hept-2-ylmethyl)-1H-indol-6-yloxy]-benzothiazole 2HCl]: 0.023 µM and 0.411 µM.
Consider `c1ccc(CNCc2coc3cc(Oc4nc5ncccc5s4)ccc23)cc1` [Example 344, Benzyl-[6-(thiazolo[4,5-b]pyridin-2-yloxy)-benzofuran-3-ylmethyl]-amine], for which the figures for the IC50 in experiment [2] and in experiment [4] were 0.021 µM and 0.1 µM, respectively.
